By pIC50 is commonly meant the IC50 on a negative log10 scale, so that one unit is a factor of ten.

Experimental findings from the supplement of paper PMC3493320 are described below.

Molecules are shown by their SMILES. pIC50: −log10 of the molar value.

The test system of experiment [1] is NCI-H295R. Kind of experiment: maximal response (efficacy) relative to DMSO (0%) and doxorubicin (-100%); higher = less growth inhibition. The conditions noted are these: 48 h.
Experiment [2] concerns NCI-H295R. Briefly: IC50 (antiproliferative, ATP content). The conditions noted are these: 48 h.

As for `C/C=C(/C(=C/C)c1ccc(O)cc1)c1ccc(O)cc1`, the maximal response in experiment [1] was -68.5%. The pIC50 in experiment [2] was 5.34.

As to `Nc1nc(N)c2nc(-c3ccccc3)c(N)nc2n1`, in experiment [1], the maximal response was -89.3%. Besides, the pIC50 in experiment [2] was 5.57.

In the case of `O=C\1OC/C(=C/1)[C@H]8CC[C@@]7(O)[C@]8(C)CC[C@H]2[C@H]7CC[C@@H]3C[C@H](CC[C@]23C)O[C@@H]6O[C@H](C)[C@@H](O[C@H]5C[C@H](O)[C@H](O[C@H]4C[C@H](O)[C@H](O)[C@@H](C)O4)[C@@H](C)O5)[C@@H](O)C6`, in experiment [1], the maximal response is -109%. This molecule also showed a negative logarithm of the IC50 (pIC50) in experiment [2] of 7.08.

Consider `C[C@@]12C(=O)OC(=O)[C@]1(C)C1CCC2O1`, for which, in experiment [1], the maximal response is -114%. Further, the negative logarithm of the IC50 (pIC50) in experiment [2] is 5.84.

In the case of `CC[P](CC)(CC)=[Au][S][C@H]1O[C@@H](COC(C)=O)[C@H](OC(C)=O)[C@@H](OC(C)=O)[C@@H]1OC(C)=O`, in experiment [1], the maximal response is -128%. In experiment [2], the pIC50 was 5.72.

Turning to `CC(=O)Oc1ccccc1C(=O)Nc1ncc([N+](=O)[O-])s1`, the maximal response in experiment [1] was -70.8%. In experiment [2], the negative-log IC50 (pIC50) was 4.82.

Regarding `CC1=C(/C=C/C(C)=C/C=C/C(C)=C/C(=O)Nc2ccc(O)cc2)C(C)(C)CCC1`, in experiment [1], the maximal response was -125%. Besides, the pIC50 in experiment [2] was 5.02.

Take `CNC(=O)c1cc(Oc2ccc(NC(=O)Nc3ccc(Cl)c(C(F)(F)F)c3)cc2)ccn1.Cc1ccc(S(=O)(=O)O)cc1`: in experiment [1], the maximal response is -129%. In experiment [2], the negative-log IC50 (pIC50) is 4.97.

Turning to `CCCCCCCCCCCCCC[N+](C)(C)C.[Br-]`, the maximal response in experiment [1] is -160%. The same molecule gave a pIC50 in experiment [2] of 4.62.

Regarding `O=C1NCN(c2ccccc2)C12CCN(CCCC(c1ccc(F)cc1)c1ccc(F)cc1)CC2`, in experiment [1], the maximal response was -137%. In experiment [2], this molecule showed a pIC50 of 4.92.

For `CC(=O)[O][Hg][c]1ccccc1`, the maximal response in experiment [1] is -126%. Besides, the pIC50 in experiment [2] is 5.52.

`c1ccc2c(c1)OCC(C1=NCCN1)O2` (configuration not stated): in experiment [1], the maximal response was -106%. In experiment [2], this molecule had a pIC50 of 4.72.

On to `CC(C)(C)c1ccc(C(=O)CCCN2CCC(OC(c3ccccc3)c3ccccc3)CC2)cc1`, for which the maximal response in experiment [1] is -139%. Also, in experiment [2], the pIC50 is 4.77.

With `CN(C)C3=CC=C(C=C3)/C(C2=CC=C(N(C)C)C=C2)=C(C=C1)/C=C/C1=N/C`, the maximal response in experiment [1] was -167%. The same molecule showed a pIC50 in experiment [2] of 4.67.

Take `CCCCCCCCCCCCCCCCOCCOCCOCCOCCOCCOCCOCCOCCOCCOCCOCCOCCOCCOCCOCCOCCOCCOCCOCCOCCO`: the maximal response in experiment [1] is -124%. In addition, in experiment [2], the pIC50 was 4.87.

Regarding `C[C@H]1CC[C@@H]2[C@@H](C)[C@H]3[C@H](C[C@H]4[C@@H]5CC=C6CC(O[C@@H]7O[C@H](CO)[C@H](O)[C@H](O[C@@H]8O[C@H](CO)[C@@H](O)[C@H](O)[C@H]8O)[C@H]7O[C@H]7O[C@@H](C)[C@H](O)[C@@H](O)[C@H]7O)CC[C@]6(C)[C@H]5CC[C@]34C)N2C1` (some centres not stated), the maximal response in experiment [1] is -135%. For the same molecule, the pIC50 in experiment [2] is 4.72.

Regarding `CCOC(=O)N1CCC(=C2c3ccc(Cl)cc3CCc3cccnc32)CC1`, the maximal response in experiment [1] was -151%. This molecule also showed a pIC50 in experiment [2] of 4.52.

Consider `C=C1CC[C@H](O)C/C1=C/C=C1\CCC[C@]2(C)[C@@H]([C@H](C)CCCC(C)(C)O)CC[C@@H]12`, for which, in experiment [1], the maximal response was -166%. In experiment [2], the pIC50 was 4.57.

For `[C@@]42([C@@]([C@@H](/C/1=C/OC(\C=C\1)=O)CC2)(CC[C@@H]5[C@]\3(CC[C@@H](/C=C/3CC[C@@H]45)O[C@H]6[C@@H]([C@@H]([C@H]([C@@H](O6)C)O)O)O)C)C)O`, in experiment [1], the maximal response is -111%. In experiment [2], the pIC50 was 7.89.

As to `[Na+].[Na+].[O-]C(=O)c4c(Cl)c(Cl)c(Cl)c(Cl)c4C=2c3cc(I)c([O-])c(I)c3OC=1C=2\C=C(\I)C(=O)C=1I`, the maximal response in experiment [1] was -153%. The molecule also had a pIC50 in experiment [2] of 4.62.

For the molecule `O=C(Nc1ccc(Oc2ccc(Cl)cc2)c(Cl)c1)c1cc(I)cc(I)c1O`, the maximal response in experiment [1] was -137%. In experiment [2], this molecule had a pIC50 of 5.32.

Consider `O[C@H]2C[C@@H](O[C@H](C)[C@H]2O[C@@H]3O[C@H](C)[C@@H](O[C@H]4C[C@H](O)[C@H](OC)[C@@H](C)O4)[C@@H](O)C3)O[C@H]1CC[C@@]5(C)[C@@](CC[C@]6([H])[C@@]([H])5C[C@@H](O)[C@@]7(C)[C@@](O)6CC[C@@H]7[C@@](CO8)=CC8=O)([H])C1`, for which the maximal response in experiment [1] was -111%. Moreover, in experiment [2], the pIC50 was 6.63.

Turning to `Clc1ccc(COC(Cn2ccnc2)c2ccc(Cl)cc2Cl)cc1.O=[N+]([O-])O` (configuration not stated), in experiment [1], the maximal response is -149%. Also, the pIC50 in experiment [2] is 4.57.

Regarding `COc1ccc(-c2ccc3cc(C(=O)O)ccc3c2)cc1C12CC3CC(CC(C3)C1)C2`, the maximal response in experiment [1] was -122%. The pIC50 in experiment [2] is 5.17.

As to `Oc1c(Br)cc(Br)c2cccnc12`, the maximal response in experiment [1] was -80.8%. Moreover, in experiment [2], the pIC50 was 5.17.

`O=C([C@](C(C=C4OC)=C(C=C4OC)OC3)([H])[C@]3([H])O2)C(C=C5)=C2C1=C5O[C@@H]([C@@](C)=C)C1`: the maximal response in experiment [1] is -69.2%. The molecule also had a pIC50 in experiment [2] of 6.12.
